Laboratory results: patent publication US20240409519A1, “HYDROGENATED QUINOXALINES” (OTSUKA PHARMACEUTICAL CO., LTD., priority 2021, published 2024)

How the values were obtained:
CYP3A4 = molecular target: T1, CYP3A4 (Homo sapiens, UniProt P08684); experiment: CYP inhibition test (1): inhibition rate (%) at one concentration, CYP3A4; format: in vitro ADME; conditions: human liver microsomes, pH 7.4, probe midazolam (0.005 mmol/L); test compound 0.01 mmol/L, human liver microsome 0.1 mg/mL, substrate midazolam, 37° C. 10 minutes; read-out: inhibition rate (%) 3A4
T1 construct: a human liver microsome solution containing three CYP-specific substrates; from tissue; host or cells: human liver microsomes
Protocol: A metabolic reaction was initiated by adding and mixing a test compound solution (final concentration 0.01 mmol/L) and a NADH/NADPH solution (final concentration 1 mmol/L) to a human liver microsome solution containing three CYP-specific substrates (final concentration 100 mmol/L potassium phosphate buffer solution (pH 7.4), 5 mmol/L magnesium chloride, 0.1 mg/mL human liver microsome, 0.005 mmol/L diclofenac (for CYP2C9), 0.01 mmol/L bufuralol (for […]), 0.005 mmol/L midazolam (for CYP3A4)). As an internal standard solution, a solution of each of stable isotopes of the metabolites (50 ng/mL [13C6] hydroxy diclofenac, 5 ng/mL [2H9] hydroxy bufuralol, and 5 ng/mL [13C6] hydroxy midazolam (all stable isotopes)) in methanol was prepared and used as a quenching solution.
Specifically, a metabolic reaction was initiated by adding and mixing 2 μL of a solution of a test compound in acetonitrile (or acetonitrile as a control) to 178 μL of a human liver microsome solution in ice water, followed by preincubation at 37° C. for 1 minute, and then adding 20 μL of a NADH/NADPH solution thereto. After incubation at 37° C. for 10 minutes, 50 μL of the reaction mixture was taken, and then it was added and mixed to 500 μL of a quenching solution to quech the reaction. The mixture was centrifuged (6130 g, 4° C., 10 minutes) and the supernatant was used as a sample for LC-MS/MS.
Peak area ratio ([peak area of metabolite]/[peak area of corresponding stable isotope]) was calculated for a metabolite and a stable isotope of the metabolite as measurement object. By comparing the peak area ratio of each test compound solution with that of the control, the inhibition rate (%) of each CYP species for each test compound was calculated from (1-[peak area ratio of each test compound solution]/[peak area ratio of control])×100.

dopamine (DA) uptake = molecular target: T2, dopamine (DA) uptake (Rattus norvegicus, UniProt P23977); experiment: Dopamine (DA) uptake inhibitory activity using rat brain synaptosome; format: biochemical; conditions: rat striatum synaptosome, tritium-labeled DA 2 nM; read-out: IC50 (nM), dopamine (DA) uptake inhibition
T2 construct: used as crude synaptosomal fraction; from tissue; host or cells: rat striatum, crude synaptosomal fraction
Protocol: (§1) Male Wistar rats were decapitated, each brain was removed, and the striatum was cut out. […] The homogenate was centrifuged at 1000 g at 4° C. for 10 minutes, and the supernatant was further centrifuged at 20000 g at 4° C. for 20 minutes. The pellet was suspended in an incubation buffer (20 mM Hepes buffer (pH 7.4) containing 10 mM glucose, 145 mM sodium chloride, 4.5 mM potassium chloride, 1.2 mM magnesium chloride and 1.5 mM calcium chloride) and used as crude synaptosomal fraction.
Each well of a 96-well round-bottom plate was used for the uptake reaction in a total volume of 200 μl solution containing purgurin (final concentration 10 μM) and ascorbic acid (final concentration 0.2 mg/mL). In other words, solvent, unlabeled DA or step-diluted test compound was added to each well, and one-tenth of the final volume of the synaptosomal fraction was added to each well, followed by pre-incubation at 37° C. for 10 minutes, and then tritium-labeled DA solution (final concentration 2 nM) was added and the uptake reaction was initiated at 37° C. After 10 minutes, the uptake reaction was terminated by suction filtration onto a 96-well glass fiber filter plate. The filters were rinsed with cold physi-ological saline solution, dried thoroughly, and micro scintillation 0 (Perkin-Elmer) was added thereto. Then, the residual radioactivity on the filters was measured.
The uptake value when only solvent was added was set as 100%, the uptake value when unlabeled DA (final concentration 10 μM) was added as 0% (nonspecific uptake value), and the 50% inhibitory concentration was calculated from the concentration of the test compound and its inhibitory activity.

[1] = molecular target: T3, norepinephrine (NE) uptake (Rattus norvegicus, UniProt Q63380); experiment: Norepinephrine (NE) uptake inhibitory activity using rat brain synaptosome; format: biochemical; conditions: rat hippocampus synaptosome, tritium-labeled NE 12 nM; read-out: IC50 (nM), norepinephrine (NE) uptake inhibition
T3 construct: used as crude synaptosomal fraction; from tissue; host or cells: rat hippocampus, crude synaptosomal fraction
Protocol: as §1, with “hippocampus” for “striatum”
Each well of a 96-well round-bottom plate was used for the uptake reaction in a total volume of 200 μL solution containing purgurin (final concentration 10 μM) and ascorbic acid (final concentration 0.2 mg/mL).
After 10 minutes, the uptake reaction was terminated by suction filtration onto a 96-well glass fiber filter plate. The filters were rinsed with cold physi-ological saline solution, dried thoroughly, and micro scintillation 0 (Perkin-Elmer) was added thereto. Then, the residual radioactivity on the filters was measured.
The uptake value when only solvent was added was set as 100%, the uptake value when unlabeled NE (final concentration 10 μM) was added as 0% (nonspecific uptake value), and the 50% inhibitory concentration was calculated from the concentration of the test compound and its inhibitory activity.

T2 sequence (P23977 whole entry): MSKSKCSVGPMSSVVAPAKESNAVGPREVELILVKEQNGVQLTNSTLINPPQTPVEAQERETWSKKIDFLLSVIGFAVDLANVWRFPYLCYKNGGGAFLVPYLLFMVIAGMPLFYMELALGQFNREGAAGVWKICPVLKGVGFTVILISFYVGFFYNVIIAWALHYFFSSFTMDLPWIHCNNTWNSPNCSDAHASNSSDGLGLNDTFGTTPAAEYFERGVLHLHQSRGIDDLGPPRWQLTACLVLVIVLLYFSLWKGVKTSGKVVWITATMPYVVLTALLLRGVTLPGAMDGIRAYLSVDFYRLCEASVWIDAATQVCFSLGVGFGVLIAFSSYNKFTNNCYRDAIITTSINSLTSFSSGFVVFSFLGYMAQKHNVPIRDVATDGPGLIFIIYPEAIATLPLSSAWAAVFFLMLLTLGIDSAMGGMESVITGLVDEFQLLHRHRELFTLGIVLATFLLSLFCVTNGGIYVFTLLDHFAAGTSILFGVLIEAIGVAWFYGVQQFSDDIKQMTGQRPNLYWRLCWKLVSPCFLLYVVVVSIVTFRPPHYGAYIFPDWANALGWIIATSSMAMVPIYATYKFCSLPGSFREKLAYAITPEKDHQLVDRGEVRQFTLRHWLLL
T1 sequence (P08684 whole entry): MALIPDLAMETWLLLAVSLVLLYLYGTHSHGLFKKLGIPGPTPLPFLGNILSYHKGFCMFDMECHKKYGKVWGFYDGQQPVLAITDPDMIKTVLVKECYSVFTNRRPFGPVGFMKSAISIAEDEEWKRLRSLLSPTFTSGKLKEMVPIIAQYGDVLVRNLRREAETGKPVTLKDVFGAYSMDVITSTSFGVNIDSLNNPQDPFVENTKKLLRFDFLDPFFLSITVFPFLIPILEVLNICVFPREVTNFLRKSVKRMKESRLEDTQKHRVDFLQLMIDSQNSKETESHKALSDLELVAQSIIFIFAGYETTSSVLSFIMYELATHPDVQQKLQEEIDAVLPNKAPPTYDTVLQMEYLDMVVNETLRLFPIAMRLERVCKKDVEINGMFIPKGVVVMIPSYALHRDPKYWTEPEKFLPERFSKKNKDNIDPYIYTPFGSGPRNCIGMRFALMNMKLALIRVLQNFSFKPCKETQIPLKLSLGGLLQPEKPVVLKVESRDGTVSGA
T3 sequence (Q63380 1-617): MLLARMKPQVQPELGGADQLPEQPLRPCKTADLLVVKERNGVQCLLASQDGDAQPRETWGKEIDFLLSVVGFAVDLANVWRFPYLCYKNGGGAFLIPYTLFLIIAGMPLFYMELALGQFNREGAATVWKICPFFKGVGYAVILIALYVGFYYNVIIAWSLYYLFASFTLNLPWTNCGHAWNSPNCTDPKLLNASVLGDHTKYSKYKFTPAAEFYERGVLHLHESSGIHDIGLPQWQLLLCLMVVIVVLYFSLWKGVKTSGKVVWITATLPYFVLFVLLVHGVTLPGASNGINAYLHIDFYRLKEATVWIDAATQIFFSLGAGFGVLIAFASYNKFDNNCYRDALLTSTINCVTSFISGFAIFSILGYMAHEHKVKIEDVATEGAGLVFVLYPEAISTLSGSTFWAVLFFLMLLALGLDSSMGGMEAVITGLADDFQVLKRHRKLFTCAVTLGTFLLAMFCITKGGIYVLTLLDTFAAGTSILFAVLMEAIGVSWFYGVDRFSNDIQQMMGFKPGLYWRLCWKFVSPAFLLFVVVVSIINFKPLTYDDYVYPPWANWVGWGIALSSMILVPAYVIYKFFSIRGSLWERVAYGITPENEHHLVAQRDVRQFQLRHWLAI

| inhibition at 10 min, 0.01 mmol/L (CYP3A4) | IC50 (dopamine (DA) uptake) | IC50 [1] | Compound |
| --- | --- | --- | --- |
| 3.9% | 78.9 nM | 5.4 nM | CC1(C)CN(c2ccc(OCCO)cc2Cl)[C@H]2CCCC[C@H]2N1 [Example 64, 2-(3-chloro-4-((4aR,8aS)-3,3-dimethyloctahydroquinoxalin-1(2H)-yl)phenoxy)ethan-1-ol 1/2fumarate] |
| 7.1% | 49.5 nM | 37.2 nM | OCCOc1ccc(N2CC3(CCC3)N[C@H]3CCCC[C@@H]32)cc1 [Example 8] |
| 14.4% | 5.5 nM | 8.5 nM | Cc1cc(N2CC3(CCC3)N[C@H]3CCCC[C@@H]32)cc(F)c1OCCO [Example 14] |
| -1.9% | 205 nM | 7.1 nM | CC1(C)CN(c2cc(F)c(OC(F)(F)CO)cc2F)[C@H]2CCCC[C@@H]2N1 [Example 77] |
| 19.7% | 91.4 nM | 3.4 nM | Cc1c(OC(F)(F)CO)ccc(N2CC(C)(C)N[C@H]3CCCC[C@H]32)c1F [Example 69, 2-(4-((4aS,8aR)-3,3-dimethyloctahydroquinoxalin-1(2H)-yl)-3-fluoro-2-methylphenoxy)-2,2-difluoroethan-1-ol 1/2fumarate] |
| 17.6% | 44.5 nM | 1 nM | Cc1c(OC(F)(F)CO)ccc(N2CC(C)(C)N[C@@H]3CCCC[C@@H]32)c1F [Example 70] |
